Reference: patent publication US20230278972A1, “SUBSTITUTED HALOALKYL SULFONANILIDE HERBICIDES” (FMC Corporation, priority 2020, published 2023)

How the values were obtained:
Format in all cases: in vivo
[1] = system: barnyardgrass (Echinochloa crus-galli); assay: Test A preemergence, barnyardgrass; settings: Preemergence; for Plant response rating, Barnyardgrass: 0 to 100 scale (0 no effect, 100 complete control)
Method in brief: (§1)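 After sowing into a sand-amended loam, pots for the preemergence test were treated by spraying directly onto soil. In parallel, seedlings at the one- to two-leaf stage and 2 to 10 cm tall were treated postemergence with the identical surfactant-containing formulation.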

[2] = system: kochia (Bassia scoparia); assay: Test A preemergence, kochia; settings: Preemergence; for Plant response rating, Kochia: 0 to 100 scale (0 no effect, 100 complete control); for Kochia plant response rating: visual injury on 0 to 100 scale (0 no effect, 100 complete control), approximately 10 days
Method in brief: as §1

[3] = system: ragweed (common ragweed, Ambrosia artemisiifolia); assay: Test A preemergence, ragweed; settings: Preemergence; for Plant response rating, Ragweed: 0 to 100 scale (0 no effect, 100 complete control); for Ragweed plant response rating: visual injury on 0 to 100 scale (0 no effect, 100 complete control), approximately 10 days
Method in brief: as §1

[4] = system: Ryegrass, Italian (Italian ryegrass, Lolium multiflorum); assay: Test A preemergence, Ryegrass, Italian; settings: Preemergence; for Plant response rating, Ryegrass, Italian: 0 to 100 scale (0 no effect, 100 complete control); for Ryegrass, Italian plant response rating: visual injury on 0 to 100 scale (0 no effect, 100 complete control), approximately 10 days
Method in brief: as §1

[5] = system: Foxtail, Giant (giant foxtail, Setaria faberi); assay: Test A preemergence, Foxtail, Giant; settings: Preemergence; for Plant response rating, Foxtail, Giant: 0 to 100 scale (0 no effect, 100 complete control); for Foxtail, Giant plant response rating: visual injury on 0 to 100 scale (0 no effect, 100 complete control), approximately 10 days
Method in brief: as §1

[6] = system: pigweed (Amaranthus retroflexus); assay: Test A preemergence, pigweed; settings: for Plant response rating, Pigweed: 0 to 100 scale (0 no effect, 100 complete control); for Pigweed plant response rating: visual injury on 0 to 100 scale (0 no effect, 100 complete control), approximately 10 days
Method in brief: as §1

[7] = system: barnyardgrass (Echinochloa crus-galli); assay: Test A postemergence, barnyardgrass; settings: Postemergence, 0 to 100 scale (0 no effect, 100 complete control); for Barnyardgrass plant response rating: visual injury vs untreated controls after approx. 10 days
Method in brief: as §1

[8] = system: kochia (Bassia scoparia); assay: Test A postemergence, kochia; settings: Postemergence, 0 to 100 scale (0 no effect, 100 complete control); for Kochia plant response rating: visual injury vs untreated controls after approx. 10 days
Method in brief: as §1

[9] = system: ragweed (common ragweed, Ambrosia artemisiifolia); assay: Test A postemergence, ragweed; settings: Postemergence, 0 to 100 scale (0 no effect, 100 complete control); for Ragweed plant response rating: visual injury vs untreated controls after approx. 10 days
Method in brief: as §1

[10] = system: Ryegrass, Italian (Italian ryegrass, Lolium multiflorum); assay: Test A postemergence, Ryegrass, Italian; settings: Postemergence, 0 to 100 scale (0 no effect, 100 complete control); for Ryegrass, Italian plant response rating: visual injury vs untreated controls after approx. 10 days
Method in brief: as §1

[11] = system: Foxtail, Giant (giant foxtail, Setaria faberi); assay: Test A postemergence, Foxtail, Giant; settings: Postemergence, 0 to 100 scale (0 no effect, 100 complete control); for Foxtail, Giant plant response rating: visual injury vs untreated controls after approx. 10 days
Method in brief: as §1

[12] = system: pigweed (Amaranthus retroflexus); assay: Test A postemergence, pigweed; settings: Postemergence, 0 to 100 scale (0 no effect, 100 complete control); for Pigweed plant response rating: visual injury vs untreated controls after approx. 10 days
Method in brief: as §1

[13] = system: wheat (Triticum aestivum); assay: Test A postemergence, wheat; settings: Postemergence, 0 to 100 scale (0 no effect, 100 complete control); for Wheat plant response rating: visual injury vs untreated controls after approx. 10 days
Method in brief: as §1

[14] = system: corn (Zea mays); assay: Test A postemergence, corn; settings: Postemergence, 0 to 100 scale (0 no effect, 100 complete control); for Corn plant response rating: visual injury vs untreated controls after approx. 10 days
Method in brief: as §1

[15] = system: blackgrass (Alopecurus myosuroides); assay: Test A postemergence, blackgrass; settings: Postemergence, 0 to 100 scale (0 no effect, 100 complete control); for Blackgrass plant response rating: visual injury vs untreated controls after approx. 10 days
Method in brief: as §1

[16] = system: galium (catchweed bedstraw, Galium aparine); assay: Test A postemergence, galium; settings: Postemergence, 0 to 100 scale (0 no effect, 100 complete control); for Galium plant response rating: visual injury vs untreated controls after approx. 10 days
Method in brief: as §1

[17] = 125 g ai/ha, visual injury, approx. 10 days
[18] = 125 g ai/ha, visual injury approx. 10 days
[19] = 500 g ai/ha, visual injury, approx. 10 days

Cc1cc(Cl)c(NS(=O)(=O)C(F)(F)F)cc1C1=NOC2(CCCC2)C1 [Compound 204]
80: Plant response rating, Foxtail, Giant [5, 17] | Barnyardgrass plant response rating ([7]; 500 g ai/ha) | Ragweed plant response rating ([9]; 500 g ai/ha) | Galium plant response rating ([16]; 500 g ai/ha)
50: Ryegrass, Italian plant response rating ([10]; 500 g ai/ha) | Plant response rating, Wheat ([13]; 125 g ai/ha) | Corn plant response rating ([14]; 500 g ai/ha) | Plant response rating, Galium ([16]; 125 g ai/ha)
90: Plant response rating, Barnyardgrass [1, 17] | Plant response rating, Barnyardgrass ([1]; 500 g ai/ha) | Plant response rating, Kochia ([2]; 500 g ai/ha) | Plant response rating, Ragweed ([3]; 500 g ai/ha) | Plant response rating, Ryegrass, Italian [4, 17] | Plant response rating, Pigweed [6, 17]
20: Plant response rating, Ragweed ([9]; 125 g ai/ha) | Plant response rating, Pigweed ([12]; 125 g ai/ha)
10: Plant response rating, Ragweed [3, 17] | Plant response rating, Foxtail, Giant ([11]; 125 g ai/ha) | Plant response rating, Corn ([14]; 125 g ai/ha)
60: Foxtail, Giant plant response rating ([11]; 500 g ai/ha)
100: Plant response rating, Ryegrass, Italian ([4]; 500 g ai/ha) | Plant response rating, Foxtail, Giant ([5]; 500 g ai/ha) | Plant response rating, Pigweed ([6]; 500 g ai/ha)
0: Plant response rating, Barnyardgrass ([7]; 125 g ai/ha) | Plant response rating, Blackgrass ([15]; 125 g ai/ha)
40: Plant response rating, Kochia [2, 17] | Plant response rating, Ryegrass, Italian ([10]; 125 g ai/ha) | Blackgrass plant response rating ([15]; 500 g ai/ha)
30: Plant response rating, Kochia ([8]; 125 g ai/ha)
70: Kochia plant response rating ([8]; 500 g ai/ha) | Pigweed plant response rating ([12]; 500 g ai/ha) | Wheat plant response rating ([13]; 500 g ai/ha)

Cc1cc(C)c(N(S(=O)(=O)C(F)(F)F)S(=O)(=O)C(F)(F)F)cc1-c1cn(C)c(=O)n(C)c1=O [Compound 42]
30: Ragweed plant response rating ([3]; 125 g ai/ha) | Plant response rating, Kochia [8, 19]
80: Plant response rating, Ragweed ([3]; 500 g ai/ha) | Plant response rating, Pigweed ([6]; 500 g ai/ha) | Plant response rating, Barnyardgrass [7, 19] | Plant response rating, Ragweed [9, 19] | Plant response rating, Ryegrass, Italian [10, 19]
90: Barnyardgrass plant response rating ([1]; 125 g ai/ha, visual injury on 0 to 100 scale (0 no effect, 100 complete control), approximately 10 days) | Plant response rating, Foxtail, Giant [11, 18] | Plant response rating, Foxtail, Giant [11, 19] | Plant response rating, Blackgrass [15, 19]
70: Plant response rating, Kochia ([2]; 500 g ai/ha) | Plant response rating, Barnyardgrass [7, 18] | Plant response rating, Ryegrass, Italian [10, 18] | Plant response rating, Wheat [13, 18] | Plant response rating, Wheat [13, 19]
50: Plant response rating, Galium [16, 18]
100: Plant response rating, Barnyardgrass ([1]; 500 g ai/ha) | Ryegrass, Italian plant response rating ([4]; 125 g ai/ha) | Plant response rating, Ryegrass, Italian ([4]; 500 g ai/ha) | Foxtail, Giant plant response rating ([5]; 125 g ai/ha) | Plant response rating, Foxtail, Giant ([5]; 500 g ai/ha) | Plant response rating, Pigweed [12, 19]
20: Plant response rating, Kochia [8, 18]
60: Plant response rating, Corn [14, 19] | Plant response rating, Galium [16, 19]
0: Plant response rating, Corn [14, 18]
40: Kochia plant response rating ([2]; 125 g ai/ha) | Pigweed plant response rating ([6]; 125 g ai/ha) | Plant response rating, Ragweed [9, 18] | Plant response rating, Pigweed [12, 18] | Plant response rating, Blackgrass [15, 18]

Cc1cc(C)c(C(=O)N2CCC(CC(F)(F)F)CC2)cc1NS(=O)(=O)C(F)(F)F [Compound 234]
0: Plant response rating, Kochia [2, 17] | Plant response rating, Kochia ([8]; 125 g ai/ha) | Kochia plant response rating ([8]; 500 g ai/ha) | Plant response rating, Ryegrass, Italian ([10]; 125 g ai/ha) | Ryegrass, Italian plant response rating ([10]; 500 g ai/ha) | Plant response rating, Foxtail, Giant ([11]; 125 g ai/ha) | Plant response rating, Wheat ([13]; 125 g ai/ha) | Wheat plant response rating ([13]; 500 g ai/ha) | Plant response rating, Corn ([14]; 125 g ai/ha) | Corn plant response rating ([14]; 500 g ai/ha) | Plant response rating, Blackgrass ([15]; 125 g ai/ha) | Blackgrass plant response rating ([15]; 500 g ai/ha)
50: Ryegrass, Italian plant response rating ([4]; 500 g ai/ha) | Plant response rating, Foxtail, Giant [5, 17] | Foxtail, Giant plant response rating ([5]; 500 g ai/ha) | Plant response rating, Pigweed [6, 17] | Ragweed plant response rating ([9]; 500 g ai/ha) | Foxtail, Giant plant response rating ([11]; 500 g ai/ha)
60: Plant response rating, Barnyardgrass ([7]; 125 g ai/ha) | Pigweed plant response rating ([12]; 500 g ai/ha)
10: Plant response rating, Galium ([16]; 125 g ai/ha)
30: Kochia plant response rating ([2]; 500 g ai/ha) | Plant response rating, Ragweed ([9]; 125 g ai/ha) | Plant response rating, Pigweed ([12]; 125 g ai/ha)
90: Ragweed plant response rating ([3]; 500 g ai/ha)
20: Plant response rating, Ryegrass, Italian [4, 17]
70: Barnyardgrass plant response rating ([7]; 500 g ai/ha)
80: Plant response rating, Barnyardgrass [1, 17] | Plant response rating, Barnyardgrass ([1]; 500 g ai/ha) | Plant response rating, Ragweed [3, 17] | Galium plant response rating ([16]; 500 g ai/ha)
100: Pigweed plant response rating ([6]; 500 g ai/ha)
